Experimental findings from US20010041346A1, “METHOD FOR ASSAYING COMPOUNDS AFFECTING SMOOTH MUSCLE CONTRACTILE STATE” (priority 1999, published 2001) are described below.

The inhibition is the share of the control response that was lost under treatment.

One experiment has as its system PP1M. Put plainly: Phosphatase assay in anti-MBS immunopellets. In kind it is biochemical, human.
Experiment [1] concerns myosin light chain phosphorylation in rat aortic smooth muscle cells. The experiment in a line: Agonist-stimulated myosin light chain phosphorylation in intact vascular smooth muscle cells. In kind it is cell-based. Conditions: n=3. The source says: The extent of agonist-stimulated myosin light chain phosphorylation was quantified in intact vascular smooth muscle cells transfected with either vector alone or a plasmid expressing the cGK1α leucine/isoleucine zipper domain (CGK1-59), to examine the effects of disrupting the cGK1α-MBS interaction on cGMP-mediated inhibition of myosin light chain phosphorylation. cGK1α1-59 was cloned into the mammalian expression vector pCI (Promega, Madison, Wis.). Rat aortic smooth muscle cells of passage 6 through 10 were transfected with either vector alone (pCI) or cDNA for the leucine/isoleucine zipper peptide from cGK (cGK1α1-59pCI) by electroporation. Cells were arrested in DME supplemented with insulin, ascorbic acid and transferrin, then stimulated with 2 μM of the thromboxane analogue U46619 for 1 minute in the absence or presence of 20 minute pretreatment with 1 mM 8-Br-cGMP. Following treatment, cells were precipitated with trichloroacetic acid, washed with acetone, and protein was subjected to glycerol-urea electrophoresis (Taylor et al., J. Biol Chem. 263, 14456, 1988). Myosin light chain phosphorylation state was quantified by immunoblotting the unphosphorylated and phosphorylated forms of myosin light chain with monoclonal antimyosin light chain antibody (Sigma, clone MY-21). Protein bands were analyzed by densitometry. Statistical analysis was performed using Student-Newman-Keuls method. Data represent the means+/−standard error of three separate experiments in duplicate.

The target in experiment [2] is T1, PP1M phosphatase activity (Homo sapiens, UniProt P62140).
T1 construct: cGKIα was immunoprecipitated and phosphatase activity was assayed in the immunopellets as described herein; endogenous in cells; host or cells: human saphenous vein smooth muscle cells
T1 sequence (P62140 whole entry): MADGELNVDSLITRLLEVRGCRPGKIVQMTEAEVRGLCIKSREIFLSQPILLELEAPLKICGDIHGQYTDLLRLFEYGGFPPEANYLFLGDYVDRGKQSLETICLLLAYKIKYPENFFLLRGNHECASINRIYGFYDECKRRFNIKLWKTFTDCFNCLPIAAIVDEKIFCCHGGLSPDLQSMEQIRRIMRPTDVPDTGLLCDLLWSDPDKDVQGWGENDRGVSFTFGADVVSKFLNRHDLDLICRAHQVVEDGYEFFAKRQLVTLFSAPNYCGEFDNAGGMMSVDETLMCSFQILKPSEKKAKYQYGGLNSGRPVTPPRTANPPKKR
T1 sequence (O14974 whole entry partner): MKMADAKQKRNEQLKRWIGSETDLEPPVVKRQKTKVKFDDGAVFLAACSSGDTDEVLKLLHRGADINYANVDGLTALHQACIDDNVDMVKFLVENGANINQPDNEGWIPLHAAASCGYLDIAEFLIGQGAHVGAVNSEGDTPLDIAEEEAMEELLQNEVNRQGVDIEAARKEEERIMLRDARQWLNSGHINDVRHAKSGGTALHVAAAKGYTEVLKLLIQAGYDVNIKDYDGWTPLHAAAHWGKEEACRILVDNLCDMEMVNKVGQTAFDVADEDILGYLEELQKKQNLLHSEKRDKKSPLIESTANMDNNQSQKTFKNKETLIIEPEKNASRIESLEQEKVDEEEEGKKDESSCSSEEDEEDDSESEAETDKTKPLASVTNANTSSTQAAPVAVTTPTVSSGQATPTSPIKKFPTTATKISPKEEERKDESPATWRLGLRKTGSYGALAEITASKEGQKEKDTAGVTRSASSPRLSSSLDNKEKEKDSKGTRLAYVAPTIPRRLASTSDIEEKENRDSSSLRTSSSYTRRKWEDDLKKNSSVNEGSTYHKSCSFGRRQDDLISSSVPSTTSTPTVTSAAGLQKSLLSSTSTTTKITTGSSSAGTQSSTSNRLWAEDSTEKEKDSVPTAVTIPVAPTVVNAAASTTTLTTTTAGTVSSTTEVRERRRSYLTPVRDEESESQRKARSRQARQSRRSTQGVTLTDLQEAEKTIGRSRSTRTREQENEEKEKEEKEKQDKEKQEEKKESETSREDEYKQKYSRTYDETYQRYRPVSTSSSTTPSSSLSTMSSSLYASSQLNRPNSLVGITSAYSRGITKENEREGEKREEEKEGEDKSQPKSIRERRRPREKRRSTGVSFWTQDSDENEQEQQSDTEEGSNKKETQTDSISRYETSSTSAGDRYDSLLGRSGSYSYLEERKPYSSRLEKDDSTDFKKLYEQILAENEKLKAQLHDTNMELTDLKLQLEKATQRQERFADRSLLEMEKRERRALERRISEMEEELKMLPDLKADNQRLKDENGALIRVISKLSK
T1 sequence (Q13976 whole entry partner): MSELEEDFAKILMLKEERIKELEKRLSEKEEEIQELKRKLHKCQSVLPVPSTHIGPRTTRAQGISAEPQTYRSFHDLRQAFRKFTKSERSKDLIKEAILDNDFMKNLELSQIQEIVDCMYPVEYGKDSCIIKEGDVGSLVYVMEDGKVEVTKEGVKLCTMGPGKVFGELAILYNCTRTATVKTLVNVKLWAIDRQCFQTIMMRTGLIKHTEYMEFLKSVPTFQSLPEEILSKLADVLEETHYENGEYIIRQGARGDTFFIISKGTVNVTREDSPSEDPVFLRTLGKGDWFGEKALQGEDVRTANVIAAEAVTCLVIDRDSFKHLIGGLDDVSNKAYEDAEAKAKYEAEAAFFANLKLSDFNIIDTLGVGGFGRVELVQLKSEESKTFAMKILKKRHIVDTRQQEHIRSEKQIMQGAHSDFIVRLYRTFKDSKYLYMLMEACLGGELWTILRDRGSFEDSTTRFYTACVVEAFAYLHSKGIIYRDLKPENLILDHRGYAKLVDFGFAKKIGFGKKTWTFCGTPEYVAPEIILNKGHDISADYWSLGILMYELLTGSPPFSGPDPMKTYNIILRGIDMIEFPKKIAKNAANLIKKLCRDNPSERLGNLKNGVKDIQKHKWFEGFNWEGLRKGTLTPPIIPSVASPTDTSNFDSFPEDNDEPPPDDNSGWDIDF
The experiment in a line: Phosphatase assay in cGKIα immunopellets. Format: biochemical.

Experiment [3] concerns the target T2, AL9 (carboxy-terminal 181 amino acids of MBS) (Homo sapiens, UniProt O14974).
T2 construct: expressed in transfected cells; host or cells: Saccharomyces cerevisiae Y190
T2 sequence (O14974 850-1030 limits assumed): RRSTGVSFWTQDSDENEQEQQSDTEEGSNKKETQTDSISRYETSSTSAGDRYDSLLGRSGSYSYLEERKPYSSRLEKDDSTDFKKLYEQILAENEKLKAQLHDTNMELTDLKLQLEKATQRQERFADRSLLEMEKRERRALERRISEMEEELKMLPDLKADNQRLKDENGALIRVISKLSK
Put plainly: Yeast two-hybrid interaction assay (HIS3 and LacZ reporter activation). Format: binding. Conditions: yeast strain Y190. As to the method: Colonies were lifted onto NitroPure nitrocellulose filters (MSI, Westboro, Mass.) which were then submerged in liquid nitrogen for 15 seconds, placed on presoaked Whatman #5 paper (in Z buffer: 60 mM Na2HPO4.7H2O, 40 mM NaH2PO4.H2O, 10 mM KCl, 1 mM MgSO4.7H2O), 50 mM β-mercaptoethanol, pH 7.0, and incubated at 37° for up to 12 hours.
Polypeptides interacting with cGK-PC97 were detected by their ability to activate transcription of histidine (HIS3) and β-galactosidase (LacZ) reporter genes via reconstitution of the Gal4 transcription factor. MaV103 colonies capable of growing on media lacking histidine were assayed for β-galactosidase activity using the colony-lift filter assay, according to standard techniques and as described herein. PC86 plasmids (containing the activated T cell library) from His3+, LacZ+ colonies were isolated and the library cDNA insert sequenced. 2.5×10^6 clones were screened from the T cell library.
To verify the interaction of AL9 with cGK1α, individual plasmids were introduced into S. cerevisiae strain Y190 (Clontech, Palo Alto, Calif.) by the lithium acetate method and assayed for reporter gene activation, as above. Y190 was transformed with cGK1α/GalDB or GalDB alone, in combination with AL9/GalAD or GalAD alone, and plated on Sc-His (synthetic complete medium, minus histidine) and YPD (yeast extract, peptone, dextrose) plates. β-galactosidase activity assays, on colonies from the YPD plate, were also performed. […] Thus, cotransformation of AL9 and cGK1α into S. cerevisiae confirmed the interaction of full-length cGK1α with the carboxy-terminal 181 amino acids of MBS.
Yeast strain Y190 was transformed with AL9/GalAD in combination with the cGK1α/GalDB truncation mutants and plated on YPD and Sc-His plates. Colony lift β-Galactosidase assays for the yeast colonies growing on the YPD plate were also performed. […] Thus, the C-terminus of MBS (AL9) interacts with the N-terminus of cGK1α (cGK1α1-59).
Site-directed mutagenesis was employed to replace selected leucine or isoleucine residues in the N-terminus of cGKIα. cGK1α1-59 was cloned into vector pcDNA3.1 (Invitrogen, Carlsbad, Calif.) using the method of Kunkel et al. (Kunkel et al., Methods in Enzymology, 154: 367-382, 1987). Three mutants of the leucine/isoleucine zipper of cGKIα were prepared: Leu12 and Ile19 to Ala (cGKLLZ1,2A); Leu26 to Pro (cGKLZ3P); Ile33 and Leu40 to Ala (cGKLZ4,5A). All mutants were confirmed by DNA sequencing, then subcloned into vector PC97 for expression in yeast. cGKLz1,2A, GKLZ3P, and GKLZ4,5A were each cotransformed with AL9 in yeast strain Y190 , and reporter gene activation assayed as described herein.

On to `Nc1nc2c(nc(Br)n2[C@@H]2O[C@@H]3COP(=O)(O)O[C@H]3[C@H]2O)c(=O)[nH]1` [8-bromo-cGMP], for which the “increase of PP1 phosphatase activity in the MBS immunopellet” value with PP1M (8-bromo-cGMP added to anti-MBS immunopellets, n=5) is listed as 32+/−13%. Moreover, in experiment [1] (cells expressing cGK1-59, 20 minute pretreatment with 1 mM 8-Br-cGMP), the “inhibition of U46619-stimulated myosin light chain phosphorylation” value was found to be 35%. In experiment [1] (control-transfected cells, 20 minute pretreatment with 1 mM 8-Br-cGMP), the “inhibition of U46619-mediated myosin light chain phosphorylation” value is 79+/−17%.
In the case of `Nc1nc2c(nc(Sc3ccc(Cl)cc3)n2[C@@H]2O[C@@H]3CO[P@@](=O)(S)O[C@H]3[C@H]2O)c(=O)[nH]1` [Rp-8-pCPT-cGMPS], the “effect on activation of PP1M by 8-bromo-cGMP” value in the experiment on PP1M (preincubation of the complex with the inhibitor, two separate experiments) is reported as “prevented”.
On to `CCCCC[C@H](O)/C=C/[C@@H]1[C@@H](C/C=C\CCCC(=O)O)[C@H]2CO[C@@H]1C2` [U46619], for which, in experiment [1] (2 μM U46619 for 1 minute, baseline 10+/−2%, vector control and cGK1-59-transfected cells), the “myosin light chain phosphorylation” value is listed as 68+/−2%.
In turn, `C=C1[C@@H](O)[C@@H]2O[C@]3(CC[C@H](/C=C/[C@@H](C)[C@@H]4CC(C)=C[C@@]5(O[C@H](C[C@@](C)(O)C(=O)O)CC[C@H]5O)O4)O3)CC[C@H]2O[C@@H]1[C@@H](O)C[C@H](C)[C@H]1O[C@@]2(CCCCO2)CC[C@H]1C` [okadaic acid] gave an inhibition at 0.002 µM in experiment [2] (2 nM okadaic acid, n=3, P=NS) of 12%. In experiment [2] (1 μM okadaic acid, n=3, p<0.001 vs. untreated), this molecule gave an inhibition at 1 µM of 79%.
Regarding “cGK1α1-59: cGK1α truncation mutant containing amino acids 1-59, leucine/isoleucine zipper domain (MSELEEDFAKILMLKEERIKELEKRLSEKEEEIQELKRKLHKCQSVLPVPSTHIGPRTT; isoform alpha; UniProt Q13976 1-59, looked up, fragment)”, the “interaction with AL9/MBS in yeast two-hybrid (HIS and β-Gal reporter activation)” value (“interaction with AL9/MBS” for short) in experiment [3] is “interacted with AL9”.
The same measure, in the same setting: with “cGKLZ1,2A: cGK1α1-59 mutant, Leu12 and Ile19 to Ala (MSELEEDFAKIAMLKEERAKELEKRLSEKEEEIQELKRKLHKCQSVLPVPSTHIGPRTT; isoform alpha; UniProt Q13976 1-59, looked up, variant L12A I19A)” the entry was “failed to interact with MBS”; with “cGKLZ3P: cGK1α1-59 mutant, Leu26 to Pro (MSELEEDFAKILMLKEERIKELEKRPSEKEEEIQELKRKLHKCQSVLPVPSTHIGPRTT; isoform alpha; UniProt Q13976 1-59, looked up, variant L26P)”, “failed to interact with MBS”; with “cGKLZ4,5A: cGK1α1-59 mutant, Ile33 and Leu40 to Ala (MSELEEDFAKILMLKEERIKELEKRLSEKEEEAQELKRKAHKCQSVLPVPSTHIGPRTT; isoform alpha residues 1-59; UniProt Q13976 1-59, looked up, variant I33A L40A)”, “weak association with MBS”.

B1: cGK1α68-667: cGK1α mutant corresponding to amino acids 68-667 (protein, UniProt Q13976 68-667, looked up, fragment)
chain: PQTYRSFHDLRQAFRKFTKSERSKDLIKEAILDNDFMKNLELSQIQEIVDCMYPVEYGKDSCIIKEGDVGSLVYVMEDGKVEVTKEGVKLCTMGPGKVFGELAILYNCTRTATVKTLVNVKLWAIDRQCFQTIMMRTGLIKHTEYMEFLKSVPTFQSLPEEILSKLADVLEETHYENGEYIIRQGARGDTFFIISKGTVNVTREDSPSEDPVFLRTLGKGDWFGEKALQGEDVRTANVIAAEAVTCLVIDRDSFKHLIGGLDDVSNKAYEDAEAKAKYEAEAAFFANLKLSDFNIIDTLGVGGFGRVELVQLKSEESKTFAMKILKKRHIVDTRQQEHIRSEKQIMQGAHSDFIVRLYRTFKDSKYLYMLMEACLGGELWTILRDRGSFEDSTTRFYTACVVEAFAYLHSKGIIYRDLKPENLILDHRGYAKLVDFGFAKKIGFGKKTWTFCGTPEYVAPEIILNKGHDISADYWSLGILMYELLTGSPPFSGPDPMKTYNIILRGIDMIEFPKKIAKNAANLIKKLCRDNPSERLGNLKNGVKDIQKHKWFEGFNWEGLRKGTLTPPIIPSVASPTDTSNFDSFPEDNDEPPPDDNSGW
modifications: isoform alpha
As for B1, the “interaction with AL9/MBS” value in experiment [3] is “failed to associate with AL9”.

B2: cGK1α68-446: cGK1α mutant corresponding to amino acids 68-446 (protein, UniProt Q13976 68-446, looked up, fragment)
chain: PQTYRSFHDLRQAFRKFTKSERSKDLIKEAILDNDFMKNLELSQIQEIVDCMYPVEYGKDSCIIKEGDVGSLVYVMEDGKVEVTKEGVKLCTMGPGKVFGELAILYNCTRTATVKTLVNVKLWAIDRQCFQTIMMRTGLIKHTEYMEFLKSVPTFQSLPEEILSKLADVLEETHYENGEYIIRQGARGDTFFIISKGTVNVTREDSPSEDPVFLRTLGKGDWFGEKALQGEDVRTANVIAAEAVTCLVIDRDSFKHLIGGLDDVSNKAYEDAEAKAKYEAEAAFFANLKLSDFNIIDTLGVGGFGRVELVQLKSEESKTFAMKILKKRHIVDTRQQEHIRSEKQIMQGAHSDFIVRLYRTFKDSKYLYMLMEACLGGEL
modifications: isoform alpha
For B2, in experiment [3], the “interaction with AL9/MBS” value was “failed to associate with AL9”.
